Measured values: ChEMBL document CHEMBL1150868, “Verbenachalcone, a novel dimeric dihydrochalcone with potentiating activity on nerve growth factor-action from Verbena littoralis” (J Nat Prod, 2001)
The source made the active and inactive calls. The rule behind the calls is not given here.

Columns and labels:
PC-12 [1] = assay: Induction of neurite outgrowth in rat PC12D cells at 1 to 30 uM in absence of nerve growth factor by microscopy; format: functional, cell-based
PC-12 [2] = assay: Enhancement of nerve growth factor-stimulated neurite outgrowth in rat PC12D cells at > 10 uM by microscopy; format: functional, cell-based

With `COc1cc(CCC(=O)c2ccc(O)cc2O)ccc1Oc1cc(CCC(=O)c2ccc(O)cc2O)ccc1O` the Activity (PC-12 [1]) was “inactive” and the Activity (PC-12 [2]) was “Active”.
